Measured values: ChEMBL document CHEMBL3352542, “Synthesis, biological evaluation and molecular modeling study of 2-(1,3,4-thiadiazolyl-thio and 4-methyl-thiazolyl-thio)-quinazolin-4-ones as a new class of DHFR inhibitors” (Bioorg Med Chem Lett, 2014)
Active and inactive are the calls of the source. No cut-off for these calls is given here.

How the values were obtained:
Dihydrofolate reductase = biological target: T1, Dihydrofolate reductase (Bos taurus, UniProt P00376); assay: Inhibition of bovine liver DHFR
T1 sequence (P00376 whole entry): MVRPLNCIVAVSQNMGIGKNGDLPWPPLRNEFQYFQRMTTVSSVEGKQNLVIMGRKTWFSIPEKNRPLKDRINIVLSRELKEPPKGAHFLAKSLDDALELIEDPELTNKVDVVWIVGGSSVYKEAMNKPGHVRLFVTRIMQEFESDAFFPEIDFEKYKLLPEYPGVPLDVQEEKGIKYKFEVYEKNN

Staphylococcus aureus = assay: Antimicrobial activity against Staphylococcus aureus assessed as inhibition zone at 200 ug/disk after 24 hrs by disc-diffusion method; assay type: functional; conditions: read-out: IZ
Bacillus subtilis = assay: Antimicrobial activity against Bacillus subtilis assessed as inhibition zone at 200 ug/disk after 24 hrs by disc-diffusion method; assay type: functional; conditions: read-out: IZ
Escherichia coli = assay: Antimicrobial activity against Escherichia coli assessed as inhibition zone at 200 ug/disk after 24 hrs by disc-diffusion method; assay type: functional; conditions: read-out: IZ
Pseudomonas aeruginosa = assay: Antimicrobial activity against Pseudomonas aeruginosa assessed as inhibition zone at 200 ug/disk after 24 hrs by disc-diffusion method; assay type: functional; conditions: read-out: IZ
Candida albicans = assay: Antimicrobial activity against Candida albicans assessed as inhibition zone at 200 ug/disk after 24 hrs by disc-diffusion method; assay type: functional; conditions: read-out: IZ
CCRF-CEM = assay: Growth inhibition of human CCRF-CEM cells at 10 uM after 48 hrs; assay type: functional
HL-60(TB) = assay: Growth inhibition of human HL-60(TB) cells at 10 uM after 48 hrs; assay type: functional
K562 = assay: Growth inhibition of human K562 cells at 10 uM after 48 hrs; assay type: functional
MOLT-4 = assay: Growth inhibition of human MOLT4 cells at 10 uM after 48 hrs; assay type: functional
RPMI-8226 = assay: Growth inhibition of human RPMI8226 cells at 10 uM after 48 hrs; assay type: functional
SR = assay: Growth inhibition of human SR cells at 10 uM after 48 hrs; assay type: functional
A549 = assay: Growth inhibition of human A549 cells at 10 uM after 48 hrs; assay type: functional
HOP-92 = assay: Growth inhibition of human HOP92 cells at 10 uM after 48 hrs; assay type: functional
NCI-H226 = assay: Growth inhibition of human NCI-H226 cells at 10 uM after 48 hrs; assay type: functional
NCI-H23 = assay: Growth inhibition of human NCI-H23 cells at 10 uM after 48 hrs; assay type: functional
NCI-H460 = assay: Growth inhibition of human NCI-H460 cells at 10 uM after 48 hrs; assay type: functional
NCI-H522 = assay: Growth inhibition of human NCI-H522 cells at 10 uM after 48 hrs; assay type: functional
COLO 205 = assay: Growth inhibition of human COLO205 cells at 10 uM after 48 hrs; assay type: functional
HCC 2998 = assay: Growth inhibition of human HCC2998 cells at 10 uM after 48 hrs; assay type: functional
HCT-116 = assay: Growth inhibition of human HCT116 cells at 10 uM after 48 hrs; assay type: functional
HCT-15 = assay: Growth inhibition of human HCT15 cells at 10 uM after 48 hrs; assay type: functional
HT-29 = assay: Growth inhibition of human HT-29 cells at 10 uM after 48 hrs; assay type: functional
KM12 = assay: Growth inhibition of human KM12 cells at 10 uM after 48 hrs; assay type: functional
SW-620 = assay: Growth inhibition of human SW620 cells at 10 uM after 48 hrs; assay type: functional
SF-268 = assay: Growth inhibition of human SF268 cells at 10 uM after 48 hrs; assay type: functional
SF-295 = assay: Growth inhibition of human SF295 cells at 10 uM after 48 hrs; assay type: functional
SF-539 = assay: Growth inhibition of human SF539 cells at 10 uM after 48 hrs; assay type: functional
SNB-19 = assay: Growth inhibition of human SNB19 cells at 10 uM after 48 hrs; assay type: functional
SNB-75 = assay: Growth inhibition of human SNB75 cells at 10 uM after 48 hrs; assay type: functional
U-251 = assay: Growth inhibition of human U251 cells at 10 uM after 48 hrs; assay type: functional
LOX IMVI = assay: Growth inhibition of human LOXIMVI cells at 10 uM after 48 hrs; assay type: functional
Malme-3M = assay: Growth inhibition of human MALME-3M cells at 10 uM after 48 hrs; assay type: functional
M14 = assay: Growth inhibition of human M14 cells at 10 uM after 48 hrs; assay type: functional
MDA-MB-435 = assay: Growth inhibition of human MDA-MB-435 cells at 10 uM after 48 hrs; assay type: functional
SK-MEL-5 = assay: Growth inhibition of human SK-MEL-5 cells at 10 uM after 48 hrs; assay type: functional
UACC-257 = assay: Growth inhibition of human UACC257 cells at 10 uM after 48 hrs; assay type: functional
UACC-62 = assay: Growth inhibition of human UACC62 cells at 10 uM after 48 hrs; assay type: functional
OVCAR-3 = assay: Growth inhibition of human OVCAR3 cells at 10 uM after 48 hrs; assay type: functional
OVCAR-4 = assay: Growth inhibition of human OVCAR4 cells at 10 uM after 48 hrs; assay type: functional
OVCAR-5 = assay: Growth inhibition of human OVCAR5 cells at 10 uM after 48 hrs; assay type: functional
OVCAR-8 = assay: Growth inhibition of human OVCAR8 cells at 10 uM after 48 hrs; assay type: functional
NCI/ADR-RES = assay: Growth inhibition of human NCI-ADR-RES cells at 10 uM after 48 hrs; assay type: functional
786-0 = assay: Growth inhibition of human 786-0 cells at 10 uM after 48 hrs; assay type: functional
A498 = assay: Growth inhibition of human A498 cells at 10 uM after 48 hrs; assay type: functional
ACHN = assay: Growth inhibition of human ACHN cells at 10 uM after 48 hrs; assay type: functional
CAKI-1 = assay: Growth inhibition of human CAKI-1 cells at 10 uM after 48 hrs; assay type: functional
RXF 393 = assay: Growth inhibition of human RXF393 cells at 10 uM after 48 hrs; assay type: functional
SN12C = assay: Growth inhibition of human SN12C cells at 10 uM after 48 hrs; assay type: functional
TK-10 = assay: Growth inhibition of human TK10 cells at 10 uM after 48 hrs; assay type: functional
UO-31 = assay: Growth inhibition of human UO31 cells at 10 uM after 48 hrs; assay type: functional
PC-3 = assay: Growth inhibition of human PC3 cells at 10 uM after 48 hrs; assay type: functional
MCF7 = assay: Growth inhibition of human MCF7 cells at 10 uM after 48 hrs; assay type: functional
MDA-MB-231 = assay: Growth inhibition of human MDA-MB-231 cells at 10 uM after 48 hrs; assay type: functional
Hs-578T = assay: Growth inhibition of human Hs 578T cells at 10 uM after 48 hrs; assay type: functional
BT-549 = assay: Growth inhibition of human BT549 cells at 10 uM after 48 hrs; assay type: functional
T47D = assay: Growth inhibition of human T47D cells at 10 uM after 48 hrs; assay type: functional
MDA-MB-468 = assay: Growth inhibition of human MDA-MB-468 cells at 10 uM after 48 hrs; assay type: functional

COc1cc2nc(Sc3sc(N)nc3C)n(-c3ccc(C)cc3)c(=O)c2cc1OC
IC50 (Dihydrofolate reductase): 8 µM | zone of inhibition at 200 µg/disc (Staphylococcus aureus): 8 mm | zone of inhibition at 200 µg/disc (Bacillus subtilis): 8 mm | zone of inhibition at 200 µg/disc (Escherichia coli): 8 mm | zone of inhibition at 200 µg/disc (Pseudomonas aeruginosa): 8 mm | zone of inhibition at 200 µg/disc (Candida albicans): 8 mm | growth inhibition (GI) (CCRF-CEM): inactive | growth inhibition (GI) (HL-60(TB)): inactive | growth inhibition (GI) (K562): inactive | growth inhibition (GI) (MOLT-4): inactive | growth inhibition (GI) (RPMI-8226): inactive | growth inhibition (GI) (SR): inactive | growth inhibition (GI) (A549): inactive | growth inhibition (GI) (HOP-92): inactive | growth inhibition (GI) (NCI-H226): inactive | growth inhibition (GI) (NCI-H23): inactive | growth inhibition (GI) (NCI-H460): inactive | growth inhibition (GI) (NCI-H522): inactive | growth inhibition (GI) (COLO 205): inactive | growth inhibition (GI) (HCC 2998): inactive | growth inhibition (GI) (HCT-116): inactive | growth inhibition (GI) (HCT-15): inactive | growth inhibition (GI) (HT-29): inactive | growth inhibition (GI) (KM12): inactive | growth inhibition (GI) (SW-620): inactive | growth inhibition (GI) (SF-268): inactive | growth inhibition (GI) (SF-295): inactive | growth inhibition (GI) (SF-539): inactive | growth inhibition (GI) (SNB-19): inactive | growth inhibition (GI) (SNB-75): inactive | growth inhibition (GI) (U-251): inactive | growth inhibition (GI) (LOX IMVI): inactive | growth inhibition (GI) (Malme-3M): inactive | growth inhibition (GI) (M14): inactive | growth inhibition (GI) (MDA-MB-435): inactive | growth inhibition (GI) (SK-MEL-5): inactive | growth inhibition (GI) (UACC-257): inactive | growth inhibition (GI) (UACC-62): inactive | growth inhibition (GI) (OVCAR-3): inactive | growth inhibition (GI) (OVCAR-4): inactive | growth inhibition (GI) (OVCAR-5): inactive | growth inhibition (GI) (OVCAR-8): inactive | growth inhibition (GI) (NCI/ADR-RES): inactive | growth inhibition (GI) (786-0): inactive | growth inhibition (GI) (A498): inactive | growth inhibition (GI) (ACHN): inactive | growth inhibition (GI) (CAKI-1): inactive | growth inhibition (GI) (RXF 393): inactive | growth inhibition (GI) (SN12C): inactive | growth inhibition (GI) (TK-10): inactive | growth inhibition (GI) (UO-31): inactive | growth inhibition (GI) (PC-3): inactive | growth inhibition (GI) (MCF7): inactive | growth inhibition (GI) (MDA-MB-231): inactive | growth inhibition (GI) (Hs-578T): inactive | growth inhibition (GI) (BT-549): inactive | growth inhibition (GI) (T47D): inactive | growth inhibition (GI) (MDA-MB-468): inactive

Cc1nc(N)sc1Sc1nc2ccc(Cl)cc2c(=O)n1-c1ccc(Cl)cc1
IC50 (Dihydrofolate reductase): 8 µM | zone of inhibition at 200 µg/disc (Staphylococcus aureus): 8 mm | zone of inhibition at 200 µg/disc (Bacillus subtilis): 8 mm | zone of inhibition at 200 µg/disc (Escherichia coli): 8 mm | zone of inhibition at 200 µg/disc (Pseudomonas aeruginosa): 8 mm | zone of inhibition at 200 µg/disc (Candida albicans): 8 mm | growth inhibition (GI) (CCRF-CEM): inactive | growth inhibition (GI) (HL-60(TB)): inactive | growth inhibition (GI) (K562): inactive | growth inhibition (GI) (MOLT-4): inactive | growth inhibition (GI) (RPMI-8226): inactive | growth inhibition (GI) (SR): inactive | growth inhibition (GI) (A549): inactive | growth inhibition (GI) (HOP-92): inactive | growth inhibition (GI) (NCI-H226): inactive | growth inhibition (GI) (NCI-H23): inactive | growth inhibition (GI) (NCI-H460): inactive | growth inhibition (GI) (NCI-H522): inactive | growth inhibition (GI) (COLO 205): inactive | growth inhibition (GI) (HCC 2998): inactive | growth inhibition (GI) (HCT-116): inactive | growth inhibition (GI) (HCT-15): inactive | growth inhibition (GI) (HT-29): inactive | growth inhibition (GI) (KM12): inactive | growth inhibition (GI) (SW-620): inactive | growth inhibition (GI) (SF-268): inactive | growth inhibition (GI) (SF-295): inactive | growth inhibition (GI) (SF-539): inactive | growth inhibition (GI) (SNB-19): inactive | growth inhibition (GI) (SNB-75): inactive | growth inhibition (GI) (U-251): inactive | growth inhibition (GI) (LOX IMVI): inactive | growth inhibition (GI) (Malme-3M): inactive | growth inhibition (GI) (M14): inactive | growth inhibition (GI) (MDA-MB-435): inactive | growth inhibition (GI) (SK-MEL-5): inactive | growth inhibition (GI) (UACC-257): inactive | growth inhibition (GI) (UACC-62): inactive | growth inhibition (GI) (OVCAR-3): inactive | growth inhibition (GI) (OVCAR-4): inactive | growth inhibition (GI) (OVCAR-5): inactive | growth inhibition (GI) (OVCAR-8): inactive | growth inhibition (GI) (NCI/ADR-RES): inactive | growth inhibition (GI) (786-0): inactive | growth inhibition (GI) (A498): inactive | growth inhibition (GI) (ACHN): inactive | growth inhibition (GI) (CAKI-1): inactive | growth inhibition (GI) (RXF 393): inactive | growth inhibition (GI) (SN12C): inactive | growth inhibition (GI) (TK-10): inactive | growth inhibition (GI) (UO-31): inactive | growth inhibition (GI) (PC-3): inactive | growth inhibition (GI) (MCF7): inactive | growth inhibition (GI) (MDA-MB-231): inactive | growth inhibition (GI) (Hs-578T): inactive | growth inhibition (GI) (BT-549): inactive | growth inhibition (GI) (T47D): inactive | growth inhibition (GI) (MDA-MB-468): inactive
